Experimental findings from article PMC12067444, “Synthesis and Pharmacological Characterization of Novel Peripheral Cannabinoid-1 Receptor Blockers Based on a Tricyclic Scaffold” (Journal of Medicinal Chemistry, 2025) are described below.

The target of one series is T1, mouse CB1R (Mus musculus, UniProt P47746).
T1 construct: crude membranes from mouse brain; from tissue; host or cells: mouse brain cortex (without cerebellum) membranes, C57Bl/6Jhsd mice
Briefly: Radioligand competition displacement binding, [3H]CP-55,940, mouse brain membranes. The protocol:
BNS compounds’ binding to CB1R and CB2R was assessed in competition displacement assays using [^3H]CP-55,940 as the radioligand and crude membranes from mouse brain or human cells overexpressing the CB1R or CB2R. All data were in triplicates with Ki values determined from three independent experiments. See SI for a detailed procedure.
Supplementary Experimental Methods
Brain membrane preparation for CB1R b i nd i ng . The mouse cortex, excluding the cerebellum, was dissected from 6-week-old C57Bl/6Jhsd mice (Harlan, Israel). The tissue was homogenized in 4 mL Buffer 1 (320 mM sucrose, 2 mM EDTA, 5 m M MgCl 2) using a glass-Teflon homogenizer and Hei-T ORQUE 200 (Heidolph; Cat# 17-012- 002- 25 -1) homogenizer set to 132 rpm. After homogenization, the mixture was centrifuged at 1,600 × g for 10 min at four °C, and the resulting supernatant was kept on ice. The pellet (P1) was discarded, and the remaining supernatant was subje cted to additional rounds of resuspension in 4 mL Buffer 1 followed by centrifugations, repeating this process three times. The pellets obtained from these centrifugations were discarded, and the three supernatant fractions were combined and subjected to higher-speed centrifugation at 39,000 × g for 15 min at f ou r °C. […] This resuspended pellet ( P 2 ) was incubated at 37 °C for 10 min and then centrifuged at 23, 000 × g for 10 min at 4°C.
After centrifugation, the pellet (P2) was resuspended in 5 mL Buffer 2 and further incubated at 30 °C for 40 min. Following this incubation, the suspension was centrifuged at 11,000 × g for 15 min at 4 °C. The pellet (P2) was resuspended in 2 mL Buffer 3 containing 50 mM TRIS HCl pH 7.4, 1 mM EDTA, and 3 mM MgCl 2. T h e protein concentration of the final suspension was determined using the BCA assay.
Subsequently, the suspension was diluted to a final concentration of 2 mg/mL in Buffer 3, aliquoted on ice, and stored at - 80 °C for further use.
CB1R and CB2R binding. Binding to the CB1R/CB2R was asse ss ed using competition displacement as says with [ 3H] CP -55,940 as the radioligand. Purified membranes from the mouse brain were utilized for CB1R assessment (as described above). Purified […]
membranes from cells overexpressing human CB2R ( Char les River CAT # A618) w e r e employed for CB2R evaluation.
For mouse CB1R binding assays, the novel compounds were dissolved in dimethyl sulfoxide (DMSO) to reach a final concentration of 10 mM. Each compound was then diluted in Buffer 3 (as described above) supplemented with 0.14% BSA, resulting in concentrations ranging from 10^-4 M to 10^-10 M. Triplicates of 100 µL of each concentration were dispensed into siliconized glass tubes. At the same time, 100 µL of Buffer 3 with 0.14% BSA was dispensed into three tubes as blanks. CB1R b r a i n membranes (20 µg) were added to each tube and diluted with 800 µL Buffer 3 with 0.14% BSA. Subsequently, 5 nM of [ 3H] CP -55,940 (100 µL) was added to each tube.
The tubes were sealed with parafilm and incubated with shaking (120 rpm) in a water bath at 30 °C for 1 hour. Following incubation, 2 mL of cold Buffer 4 (50 mM TRIS HCl pH 7.4, 1 mg/mL BSA) was added to each tube.
To harvest the content of each tube, a Brandel M-24R Vacuum Harvester was employed, with a wet WHATMAN GF/B filter paper (Fired) (one membrane for 12 tubes) placed in the harvester after being washed twice with Buffer 4. The filter membrane in the harvester absorbed the full content of each tube. Then, the filter membrane was wash ed six times with Buffer 4. Each filter -glass membrane tube wa s excised and transferred to a 20 mL glass tube co ntaining a 5 mL ULTIMA GOLD scintillation cocktail. […]
On the technique in general: In a radioligand displacement assay an active substance lowers the binding of a labelled ligand.

The target in series [1] is hERG cardiac potassium channel (Homo sapiens, UniProt Q12809). Briefly: hERG automated patch clamp (SyncroPatch 384PE). It counts as cell-based. As to conditions: whole cell hERG currents. (The hERG channel carries a current that helps repolarise heart muscle cells.)
Chain of hERG cardiac potassium channel (Q12809 whole entry): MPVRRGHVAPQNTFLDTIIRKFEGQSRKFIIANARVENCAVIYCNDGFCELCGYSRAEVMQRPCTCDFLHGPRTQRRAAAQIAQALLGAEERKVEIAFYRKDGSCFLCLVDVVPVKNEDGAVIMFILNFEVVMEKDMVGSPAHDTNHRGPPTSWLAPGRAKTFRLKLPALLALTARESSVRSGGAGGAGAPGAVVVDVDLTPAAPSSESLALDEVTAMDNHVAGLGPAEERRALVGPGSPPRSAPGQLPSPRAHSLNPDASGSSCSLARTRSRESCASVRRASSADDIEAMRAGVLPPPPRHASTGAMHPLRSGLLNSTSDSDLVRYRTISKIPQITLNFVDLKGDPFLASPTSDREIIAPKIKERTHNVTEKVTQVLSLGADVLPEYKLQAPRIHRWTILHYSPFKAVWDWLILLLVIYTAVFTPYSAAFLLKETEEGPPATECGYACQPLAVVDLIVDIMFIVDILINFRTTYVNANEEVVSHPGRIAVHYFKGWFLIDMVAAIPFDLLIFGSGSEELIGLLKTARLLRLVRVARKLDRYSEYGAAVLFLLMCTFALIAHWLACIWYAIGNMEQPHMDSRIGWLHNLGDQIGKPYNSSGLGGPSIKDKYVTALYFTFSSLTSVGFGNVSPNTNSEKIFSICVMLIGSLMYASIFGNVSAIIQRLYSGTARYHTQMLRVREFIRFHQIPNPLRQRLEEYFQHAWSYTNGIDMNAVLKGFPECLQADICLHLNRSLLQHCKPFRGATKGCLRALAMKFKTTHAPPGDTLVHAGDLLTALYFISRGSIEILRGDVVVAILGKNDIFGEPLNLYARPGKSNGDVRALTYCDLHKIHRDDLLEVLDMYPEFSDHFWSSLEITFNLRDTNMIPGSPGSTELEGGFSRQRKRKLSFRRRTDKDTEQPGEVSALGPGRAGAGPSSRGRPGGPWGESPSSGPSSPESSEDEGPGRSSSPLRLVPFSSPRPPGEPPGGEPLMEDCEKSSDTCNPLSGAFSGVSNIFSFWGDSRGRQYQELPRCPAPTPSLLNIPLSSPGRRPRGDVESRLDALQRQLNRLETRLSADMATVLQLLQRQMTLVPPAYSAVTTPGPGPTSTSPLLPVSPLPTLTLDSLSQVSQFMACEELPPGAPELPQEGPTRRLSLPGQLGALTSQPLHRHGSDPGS
Another series concerns HepG2 cells. The experiment in a line: Cell viability assay (CellTiter Glo). Type of series: cell-based. As to conditions: 72 h; for IC50: Homo sapiens. The protocol:
Cell viability assay. To assess the cell viability, which indicates the toxicity of the novel compounds, a total of 3,000 HepG2 cells were seeded into a 384-well plate. The compounds were then dispensed onto the cell plate using a Tecan D300e digital dispenser. Following compound addition, 35 μL CellTiter Glo reagent was added to all wells of the assay plate, and the plate was mixed for 30 sec on an or bital shaker to lyse cells. Subsequently, the plate was incubated at room temperature for 10 minutes. The luminescence signal was measured using a 384-well plate reader (EnVision). The obtained data were analyzed using XL-fit software (ID Business Solutions Ltd., Software version: XL fit 5. 5. 0. 5). The percentage of inhibition was calculated using the […]
Inhibition (%) = (1-Sample / ZPE) ×100
Sample represents the test compound's luminesc e nce signal, and ZPE represents the luminescence signal f r om the zer o-percent enzyme control.
Background: In ATP-based viability assays light output follows the ATP content of the culture.

For another series, the target named is T2, human CB1R (Homo sapiens, UniProt P21554).
T2 construct: purchased PerkinElmer RBHCB1M400UA
T2 sequence (P21554 whole entry): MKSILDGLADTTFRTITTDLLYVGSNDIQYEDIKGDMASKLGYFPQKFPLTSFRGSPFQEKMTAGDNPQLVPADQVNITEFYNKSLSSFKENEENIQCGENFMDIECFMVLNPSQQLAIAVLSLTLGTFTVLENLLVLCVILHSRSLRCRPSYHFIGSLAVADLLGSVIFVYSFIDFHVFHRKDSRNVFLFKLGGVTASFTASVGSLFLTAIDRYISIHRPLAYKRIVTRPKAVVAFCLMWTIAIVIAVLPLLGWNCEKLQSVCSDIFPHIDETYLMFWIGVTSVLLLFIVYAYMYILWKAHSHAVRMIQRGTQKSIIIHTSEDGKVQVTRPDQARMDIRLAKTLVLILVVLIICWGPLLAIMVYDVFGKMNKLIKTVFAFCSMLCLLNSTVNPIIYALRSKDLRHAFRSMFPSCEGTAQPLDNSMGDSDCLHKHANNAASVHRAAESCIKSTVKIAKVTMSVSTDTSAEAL
The experiment in a line: Radioligand competition displacement binding, [3H]CP-55,940, membranes with human CB1R. Here is the method:
BNS compounds’ binding to CB1R and CB2R was assessed in competition displacement assays using [^3H]CP-55,940 as the radioligand and crude membranes from mouse brain or human cells overexpressing the CB1R or CB2R. All data were in triplicates with Ki values determined from three independent experiments. See SI for a detailed procedure. […]
Radioligand binding assays were performed to asse ss the binding affinity of the different compounds to hCB1R (RBHCB1M4 00UA; Per kinElmer) or hCB 2R
(RBXCB2 M400UA; PerkinElmer). Competition displacement as says w ere employed, […]
utilizing [3H] C P -55,940 as the radioligand and crude membranes from humans for CB1 R or CB2 R. T he compounds were tested at various concentrations (eight points with a five-fold serial dilution starting at two m M) , and their ability to displace [3H] CP - 55, 940 was evaluated. Upon completion of the binding assays, the reaction mixture was filtered through GF/C plates, followed by four washes with cold wash buffer. After drying for one hour, 50 μL of Perkin Elmer Microscint 20 cocktail was added to the filter plate wells, and the bound [3H] C P -55,940 radioligand was measured using a β counter. All data points were duplicated, and Ki values were determined from two independent experiments using GraphPad Prism 7.02 analysis software, extracted through nonlinear regression analysis. […]

The mark [2] stands for this setting: [3H]CP-55,940 displacement, mouse brain membranes, read-out: CB1R mKi.
Where [3] appears, read: read-out: cell viability Absolute IC50.
The mark [4] stands for this setting: read-out: cell viability relative IC50.
The mark [5] stands for this setting: human CB1R, read-out: CB1R hIC50.

Like-named read-outs stand apart in the source and are kept apart here.

T1 sequence (P47746 whole entry): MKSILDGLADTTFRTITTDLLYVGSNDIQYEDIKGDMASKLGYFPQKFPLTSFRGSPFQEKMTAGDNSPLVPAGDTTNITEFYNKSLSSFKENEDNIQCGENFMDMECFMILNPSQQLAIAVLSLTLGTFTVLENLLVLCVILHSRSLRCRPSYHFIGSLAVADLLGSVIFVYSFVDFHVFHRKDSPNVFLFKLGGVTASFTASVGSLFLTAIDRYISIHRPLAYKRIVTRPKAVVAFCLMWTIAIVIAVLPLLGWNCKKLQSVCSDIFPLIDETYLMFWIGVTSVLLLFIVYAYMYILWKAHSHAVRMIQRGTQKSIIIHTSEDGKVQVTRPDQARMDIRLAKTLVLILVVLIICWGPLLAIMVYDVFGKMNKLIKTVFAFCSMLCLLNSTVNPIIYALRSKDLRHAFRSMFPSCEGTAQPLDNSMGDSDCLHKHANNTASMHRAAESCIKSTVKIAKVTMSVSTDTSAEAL

For `Cc1ccc(S(=O)(=O)NC2CCCOc3c2nn(-c2ccccc2Cl)c3-c2ccc(Cl)cc2)cc1` (stereo not shown) [BNS807], the Ki on mouse CB1R (setting [2]) was found to be 0.01 µM. For the same compound, the IC50 in series [1] is 18 µM; in the series on HepG2 cells (setting [3]) it was over 100 µM; with HepG2 cells (setting [4]), 17.9 µM; at human CB1R (setting [5]) it was 0.0015 µM. Further, the “Bottom (%) of cell viability inhibition curve” value in the series with HepG2 cells is -12.17%. Besides, the “Slope of cell viability inhibition curve” value in the series on HepG2 cells is reported as 1.52. In addition, the “Top (%) of cell viability inhibition curve” value in the series with HepG2 cells turned out to be 21.39%.

Consider `CS(=O)(=O)N1CCC(C(=O)NC2CCCOc3c2nn(-c2ccccc2Cl)c3-c2ccc(Cl)cc2)CC1` (stereo not shown) [BNS815, N-[2-(2-Chlorophenyl)-3-(4-chlorophenyl)-5,6,7,8-tetrahydrooxepino[3,2-c]pyrazol-8-yl]-1-methylsulfonyl-piperidine-4-carboxamide], for which the Ki at mouse CB1R (setting [2]) came out at 0.018 µM; at human CB1R ([3H]CP-55,940 displacement, human CB1R membranes, read-out: CB1R hKi), 0.00909 µM. Besides, the IC50 in series [1] worked out at 4.86 µM; with HepG2 cells (setting [3]) it was 55.9 µM; in the series with HepG2 cells (setting [4]), 46.7 µM; at human CB1R (setting [5]), 0.0101 µM. Also, in the series with HepG2 cells, the “Bottom (%) of cell viability inhibition curve” value is -9.25%. Besides, the “Slope of cell viability inhibition curve” value in the series with HepG2 cells is given as 3.71. Further, in the series with HepG2 cells, the “Top (%) of cell viability inhibition curve” value is on record as 80.41%.

Consider `O=S(=O)(NC1CCCOc2c1nn(-c1ccccc1Cl)c2-c1ccc(Cl)cc1)c1ccc(Cl)cc1` (stereo not shown) [BNS808, 4-chloro-N-[2-(2-chlorophenyl)-3-(4-chlorophenyl)-5,6,7,8-tetrahydrooxepino[3,2-c]pyrazol-8-yl]benzenesulfonamide], for which the Ki at mouse CB1R was 0.0007 µM. The IC50 in series [1] was found to be 5.39 µM; with HepG2 cells (setting [3]), 26.2 µM; with HepG2 cells (setting [4]) it was 16.8 µM; at human CB1R, 0.0008 µM. The “Bottom (%) of cell viability inhibition curve” value with HepG2 cells is -8.11%. Also, the “Slope of cell viability inhibition curve” value in the series with HepG2 cells came out at 3.39. The “Top (%) of cell viability inhibition curve” value in the series with HepG2 cells amounted to 62.98%.
